Experimental data: US11078232B2, “Preparation and use of molecular site targeted and activated kinase inhibitor” (Yafei Shanghai Biology Medicine Science & Technology Co. …, priority 2017, dated 2021)

What was measured:
[1] = biological target: T1, aspartic acid endopeptidase (Legumain) (Homo sapiens, UniProt Q99538); test: Enzymatic cleavage (digestion) efficiency of linkers; assay type: biochemical; settings: linker cleaved by Legumain
T1 sequence (Q99538 18-323): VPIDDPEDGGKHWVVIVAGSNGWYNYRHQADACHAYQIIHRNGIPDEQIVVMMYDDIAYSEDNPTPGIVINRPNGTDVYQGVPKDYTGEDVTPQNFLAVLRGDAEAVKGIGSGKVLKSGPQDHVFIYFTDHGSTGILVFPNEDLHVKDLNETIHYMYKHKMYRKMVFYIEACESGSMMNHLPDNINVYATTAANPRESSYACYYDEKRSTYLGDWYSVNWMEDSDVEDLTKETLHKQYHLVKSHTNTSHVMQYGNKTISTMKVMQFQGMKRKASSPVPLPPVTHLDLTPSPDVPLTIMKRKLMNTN
Procedure: (§1) The specific aspartic acid endopeptidase (Legumain) enzyme substrate peptide was ligated to different types of carbohydrates, and the stability and enzymatic cleavage efficiency of the resulting linker were tested, and a strong activation was predicted.

[2] = Stability of carbohydrate-linked enzyme substrate peptide linkers; assay type: physicochemical; settings: linker: carbohydrate linked to the enzyme substrate peptide
Procedure: as §1

aspartic endopeptidase = biological target: T2, aspartic endopeptidase (Homo sapiens, UniProt Q99538); test: Activation efficiency by aspartic endopeptidase (HPLC); assay type: biochemical; settings: 1 mg/ml compound, enzyme 1 μmol/L, pH 6.0, 37° C., 2 hours; ratio of released product to original compound
T2 sequence (Q99538 18-323): T1 sequence (Q99538 18-323)
Procedure: The sample compound and a portion of the control compound (herein, all of the control compounds can be synthesized by a method similar to that described in Examples 1-3) were uniformly diluted 10-fold to 1 mg/ml with the enzyme-digesting solution. In this experiment, 1 mg/ml of the sample compound was added to the aspartic endopeptidase (1 μmol/L, pH 6.0) at 37° C. for 2 hours. After the reaction, the enzyme digest was able to release the enzyme-digested product. The decrease in the compound and the increase in the product were examined by HPLC to compare the enzyme activation efficiency (the ratio of the product released by the enzyme cleavage to the original compound).

[3] = Solid stability, 60° C. for 10 days in the dark (HPLC); assay type: physicochemical; settings: solid, 60° C., 10 days, dark; for Stability(%): content versus time 0
Procedure: The test was carried out by leaving it at 60° C. for 10 days in the dark. The ratio of the change in the content of the compound to the compound at time 0 was measured by HPLC, and the stability value (%) was calculated.

[4] = MTD (maximum tolerated dose) acute toxicity in mice; assay type: in vivo, mouse; settings: mouse, in vivo, BALB/C mice, intravenous, observed 17 days; for MTD at 17 days: female
Description: (§2) Test purpose: to investigate the acute toxicity of highly activated compounds by targeted site molecules of the invention by measuring the MTD (maximum tolerated dose) experiment in mice.
(§3) The injections of each drug and the control drug were uniformly dissolved using water for injection, and diluted to the corresponding dose with physiological saline during the test.
(§4) Methods and results: […] BALB/C mice, weighing 19-21 g, were randomly divided into 10 groups, with 10 mice in each group. […] A control test of the saline group and the adriamycin group injection (commercially available, Beijing Yue kang) was carried out, and the injection volume of each mouse was 0.2 ml. […] On the D3, D5, and D14, blood samples were taken for whole blood count.

BALB/C mouse = test: as above; assay type: in vivo; settings: intravenous; for Number of deaths: 10 mice per group; for Death dose: observed 17 days
Description: as §2, §3, §4

CT26 tumor cells [5] = test: CT26 immunotherapy model (Example 15); assay type: in vivo, mice; settings: for Cure rate % / Number of cures: 10 in each group; for Tumor inhibition rate % (Day 42): IV ⅓ MTD once a week, 6 weeks; for Recurrence rate % (Week 7): cured mice re-inoculated with CT26 cells after 50 days
Procedure: (§5) 1) CT26 tumor cells were purchased from ATCC, and the cells were cultured using a 10% fetal bovine serum DMEM medium at 37° C., 5% CO2. The cells were passaged every 3 days and the cells were used within 15 generations.
(§6) 2) Tumor production: 10^6 live CT26 tumor cells were injected subcutaneously into the back of tumor-immunized […], and treatment was started when the tumor grew to about 0.3-0.4 cm. The tumor size (mm^3) of the mice was recorded and compared with the solvent control group. The tumor inhibition rate on day 42 was calculated in the solvent control group.
(§7) 3) Treatment process: IV injection is used, and the drug is used at a dose of ⅓ MTD once a week Immunosuppressive IV injection treatment once a week for a total of 6 weeks of treatment.
(§8) 4) The cure rate of 10 in each group was counted. After 50 days, the cured mice and wild groups were inoculated […] to detect recurrence.

D121 lung cancer cells = test: D121 lung cancer immunotherapy model; settings: single agent; for Tumor inhibition rate/% (week 7): i.v. ⅙ MTD once a week for 4 weeks; for CD8: CD45 (%): tumor CD8+ T cells among CD45-positive cells, flow cytometry
Procedure: (1) D121 lung cancer cells purchased from ATCC were cultured in DMEM medium containing 10% fetal bovine serum at 37° C. and 5% CO2, and the cells were digested with EDTA trypsin according to routine use, and passed two to three times a week for placement.
(2) Animals: C57 BALB/C mice, 6-8 weeks old, female, weighing about 18-22 g, purchased from Shanghai SLAC Laboratory Animal Co., Ltd.
3) Immunization: Mice were intraperitoneally injected with 100 μL of 5×10^5 D121 lung cancer cells that died by repeated freeze-thaw cycles, and immunized 3 times with an interval of 2 weeks.
4) Cell seeding: Collect the tumor cells in logarithmic growth phase, adjust the D121 cell concentration to (1×10^7/ml) with DMEM basal medium, 0.1 ml of the cell suspension was inoculated to the right side of each mouse subcutaneously with a 1 ml syringe. […] Tumor volume was observed and measured, and the average tumor volume reached 100-200 mm^3 about 7 days after inoculation, that is, tumor cell-bearing mice were grouped and administered. The immunized group in Table 9 was immunized with D121 lung cancer cells, and the D121 dead tumor cell immunized group was injected with physiological saline as a control.
The immunosuppressive regulatory point protein Anti-PD-L1 antibody was injected twice a week. A total of two weeks.
6) Experimental observation: During the whole experiment, the use and observation of experimental animals were carried out in accordance with the regulations of AAALAC. The experimental animals were observed daily after inoculation of tumor cells, and their onset and death were recorded. During the routine experiment, all experimental animals were monitored and recorded for behavior, feeding, water intake, weight change, hair shine and other abnormalities.
(7) Analysis of tumor CD8+ T cells (T lymphocyte subsets). Tumor tissues were ground and single cancer cells were isolated by filtration using 40 μm Nylon cell strainer, lysed twice with blood cell lysis buffer for 20 min, washed twice with 1% BSA-PBS buffer, centrifuged, and resuspended, and then the cells were counted again. 1×10^5 cells were incubated with leukocyte co-antigen CD45-PE and CD8-FITC-labeled antibody for 1 hour at room temperature in the dark, and then analyzed the proportion of T lymphocyte antigen (CD8) in leukocyte common antigen (CD45)-positive cells by flow cytometry.

CT26 tumor cells [6] = test: CT26 treatment model (Example 17); assay type: in vivo, mice; settings: CT26 model as in Example 15
Procedure: as §5, §6, §7, §8
The CT26 immunotherapy model was constructed as in Example 15, and the pharmacodynamic and immunotherapeutic effects of the compounds S4-S6, S9-S12 and S15-S18 in the CT26 treatment model were tested.

[7] = Drug content in tumor tissue homogenate (HPLC); assay type: in vivo; settings: 10 micromoles per kilogram intravenous, tumor-bearing mice, FIG. 4
Procedure: Intravenous injection of 10 micromoles per kilogram of the drug into tumor-bearing mice, surgically obtained tumor tissue homogenate, and the drug content was determined by the HPLC method.

CC(/N=C\[C@H](O)[C@@H](O)[C@H](O)[C@H](O)CO)C(=O)NC(C)C(=O)NC(CC(N)=O)C(=O)Nc1ccc(CO)cc1 (stereo partly drawn)
Digestion efficiency [1]: 25.5% | stability [2]: 89.6%

Lacto-AAN-PABC-Paclitaxel [Compound C5, reference compound]
Activation efficiencies (%) (aspartic endopeptidase): 59.3% | Stability verdict (stable / unstable) [3]: unstable | Stability(%) [3]: 89.3%

PEG-Ala-Ala-ASN-PABC
Digestion efficiency [1]: 68.6% | stability [2]: 97.6%

CC(NC(=O)C(NC(=O)[C@H](O)[C@H](O)[C@@H](O[C@@H]1O[C@H](CO)[C@H](O)[C@H](O)[C@H]1O)[C@H](O)CO)C(C)C)C(=O)NC(CC(N)=O)C(=O)Nc1ccc(COC(=O)N(C)CCNC(=O)c2cc(Oc3ccc(NC(=O)Nc4ccc(Cl)c(C(F)(F)F)c4)cc3)ccn2)cc1 (stereo partly drawn) [Compound S7, Lacto-VAN-PABC-compound a]
MTD at 17 days [4]: 300 mg/kg | Number of deaths (BALB/C mouse): 1 | Death dose (BALB/C mouse): 345 mg/kg | Activation efficiencies (%) (aspartic endopeptidase): 90.5% | Cure rate % (CT26 tumor cells [5]): 70% | Number of cures (CT26 tumor cells [5]): 7 | Tumor inhibition rate % (Day 42) (CT26 tumor cells [5]): 84.7% | Recurrence rate % (Week 7) (CT26 tumor cells [5]): 0% | Stability verdict (stable / unstable) [3]: stable | Stability(%) [3]: 97.2%

CC(NC(=O)C(NC(=O)[C@H](O)[C@H](O)[C@@H](O[C@@H]1O[C@H](CO)[C@H](O)[C@H](O)[C@H]1O)[C@H](O)CO)C(C)O)C(=O)NC(CC(N)=O)C(=O)Nc1ccc(COC(=O)N(C)CCNC(=O)c2cc(Oc3ccc(NC(=O)Nc4ccc(Cl)c(C(F)(F)F)c4)cc3)ccn2)cc1 (stereo partly drawn) [Compound S13, Lacto-TAN-PABC-compound a]
MTD at 17 days [4]: 320 mg/kg | Number of deaths (BALB/C mouse): 2 | Death dose (BALB/C mouse): 360 mg/kg | Activation efficiencies (%) (aspartic endopeptidase): 98.6% | Cure rate % (CT26 tumor cells [5]): 80% | Number of cures (CT26 tumor cells [5]): 8 | Tumor inhibition rate % (Day 42) (CT26 tumor cells [5]): 79.7% | Recurrence rate % (Week 7) (CT26 tumor cells [5]): 0% | Stability verdict (stable / unstable) [3]: stable | Stability(%) [3]: 98.6%

C[C@H](N=C[C@H](O)[C@@H](O)[C@H](O)[C@H](O)CO)C(=O)N[C@@H](C)C(=O)N[C@@H](CC(N)=O)C(=O)Nc1ccc(COC(=O)N(C)CCNC(=O)c2cc(Oc3ccc(NC(=O)Nc4ccc(Cl)c(C(F)(F)F)c4)cc3)ccn2)cc1 [Compound C4, Glucose-AAN-PABC-Compound a, reference compound]
MTD [4]: 80 mg/kg | Number of deaths (BALB/C mouse): 2 | Death dose (BALB/C mouse): 90 mg/kg | Activation efficiencies (%) (aspartic endopeptidase): 46.7% | Tumor inhibition rate/% (week 7) (D121 lung cancer cells): 40.8% | CD8: CD45 (%) (D121 lung cancer cells): 10.7% | Cure rate % (CT26 tumor cells [5]): 0% | Number of cures (CT26 tumor cells [5]): 0 | Tumor inhibition rate % (Day 42) (CT26 tumor cells [5]): 36.6% | Stability verdict (stable / unstable) [3]: unstable | Stability(%) [3]: 85.7%

CC(NC(=O)C(C)NC(=O)[C@H](O)[C@H](O)[C@@H](O[C@@H]1O[C@H](CO)[C@H](O)[C@H](O)[C@H]1O)[C@H](O)CO)C(=O)NC(CC(N)=O)C(=O)Nc1ccc(COC(=O)Nc2nccc(-c3sc(C(C)(C)C)nc3-c3cccc(NS(=O)(=O)c4c(F)cccc4F)c3F)n2)cc1 (stereo partly drawn) [Compound S4]
MTD at 17 days [4]: 280 mg/kg | Number of deaths (BALB/C mouse): 2 | Death dose (BALB/C mouse): 300 mg/kg | Tumor inhibition rate/% (week 7) (D121 lung cancer cells): 70.7% | CD8: CD45 (%) (D121 lung cancer cells): 15.8% | CD8: CD45 (%) (CT26 tumor cells [6]): 11.9% | Number of animals cured (CT26 tumor cells [6]): 2 | Recurrence rate/% (at week 10) (CT26 tumor cells [6]): 0% | Tumor inhibition rate/% (at week 7) (CT26 tumor cells [6]): 58.9%

CC(NC(=O)C(NC(=O)[C@H](O)[C@H](O)[C@@H](O[C@@H]1O[C@H](CO)[C@H](O)[C@H](O)[C@H]1O)[C@H](O)CO)C(C)C)C(=O)NC(CC(N)=O)C(=O)Nc1ccc(COC(=O)N(C)CCNC(=O)c2cc(Oc3ccc(NC(=O)Nc4ccc(Cl)c(C(F)(F)F)c4)c(F)c3)ccn2)cc1 (stereo partly drawn) [Compound S8, Lacto-VAN-PABC-compound b]
MTD at 17 days [4]: 280 mg/kg | Number of deaths (BALB/C mouse): 2 | Death dose (BALB/C mouse): 340 mg/kg | Activation efficiencies (%) (aspartic endopeptidase): 93.7% | Cure rate % (CT26 tumor cells [5]): 70% | Number of cures (CT26 tumor cells [5]): 7 | Tumor inhibition rate % (Day 42) (CT26 tumor cells [5]): 73.4% | Recurrence rate % (Week 7) (CT26 tumor cells [5]): 0% | Stability verdict (stable / unstable) [3]: stable | Stability(%) [3]: 98.4%

CC(/N=C(\CO)C(O)C(O)C(O)CO)C(=O)NC(C)C(=O)NC(CC(N)=O)C(=O)Nc1ccc(CO)cc1 (stereo not drawn)
Digestion efficiency [1]: 35.8% | stability [2]: 85.5%

CC(/N=C/[C@H](O)[C@@H](O)[C@H](O)CO)C(=O)NC(C)C(=O)NC(CC(N)=O)C(=O)Nc1ccc(CO)cc1 (stereo partly drawn)
Digestion efficiency [1]: 60.4% | stability [2]: 78.9%

CC(NC(=O)C(NC(=O)[C@H](O)[C@H](O)[C@@H](O[C@@H]1O[C@H](CO)[C@H](O)[C@H](O)[C@H]1O)[C@H](O)CO)C(C)O)C(=O)NC(CC(N)=O)C(=O)Nc1ccc(COC(=O)N(C)CCNC(=O)c2cc(Oc3ccc(NC(=O)Nc4ccc(Cl)c(C(F)(F)F)c4)c(F)c3)ccn2)cc1 (stereo partly drawn) [Compound S14, Lacto-TAN-PABC-compound b]
MTD at 17 days [4]: 310 mg/kg | Number of deaths (BALB/C mouse): 1 | Death dose (BALB/C mouse): 350 mg/kg | Activation efficiencies (%) (aspartic endopeptidase): 99.5% | Cure rate % (CT26 tumor cells [5]): 80% | Number of cures (CT26 tumor cells [5]): 8 | Tumor inhibition rate % (Day 42) (CT26 tumor cells [5]): 85.% | Recurrence rate % (Week 7) (CT26 tumor cells [5]): 0% | Stability verdict (stable / unstable) [3]: stable | Stability(%) [3]: 97.8%

CC(NC(=O)C(C)NC(=O)[C@H](O)[C@H](O)[C@@H](O[C@@H]1O[C@H](CO)[C@H](O)[C@H](O)[C@H]1O)[C@H](O)CO)C(=O)NC(CC(N)=O)C(=O)Nc1ccc(COC(=O)N(C)CCNC(=O)c2cc(Oc3ccc(NC(=O)Nc4ccc(Cl)c(C(F)(F)F)c4)c(F)c3)ccn2)cc1 (stereo partly drawn) [Compound S2, Lacto-AAN-PABC-Compound b]
MTD at 17 days [4]: 300 mg/kg | Number of deaths (BALB/C mouse): 2 | Death dose (BALB/C mouse): 350 mg/kg | Activation efficiencies (%) (aspartic endopeptidase): 88.4% | Tumor inhibition rate/% (week 7) (D121 lung cancer cells): 52.4% | CD8: CD45 (%) (D121 lung cancer cells): 10.5% | Cure rate % (CT26 tumor cells [5]): 50% | Number of cures (CT26 tumor cells [5]): 5 | Tumor inhibition rate % (Day 42) (CT26 tumor cells [5]): 92.4% | Recurrence rate % (Week 7) (CT26 tumor cells [5]): 0% | drug distribution in the tumor [7]: multiplied in the distribution of sorafenib in the tumor | Stability verdict (stable / unstable) [3]: stable | Stability(%) [3]: 99.6%
